Results published in patent publication US4717662A (priority 1985, dated 1988).
Like-named read-outs stand apart in the source and are kept apart here.

Columns and labels:
alpha-amylase [1] = target: alpha-amylase (Bacillus licheniformis, UniProt P06278); conditions: for (-Δ G°) stabilization free energy, R T ln F: 95° C. (T = 368K); for t 1/2: salt added to 1.22 M, diluted 1×100
alpha-amylase [2] = assay: Comparative thermal stability of alpha-amylase with different anions at 90° C.; type: biochemical; conditions: percent residual activity versus time at 90° C., FIG. 2
Protocol: A comparative study was conducted in which the stability of alpha-amylase stabilized with acetate was compared with that containing anions known to have been added to commercially available alpha-amylase solutions. The activity of the various anion containing enzyme solutions was determined as previously described and the percent residual activity plotted as a function of time at 90° C. The results of this study are graphically represented in FIG. 2. The stabilizing effects of the different anions against thermal inactivation of the enzyme followed this order: citrate<sulphate<chloride<acetate.

[3] = tested on: alpha-amylase (Taka-Therm L-170); conditions: pH 5.5
Protocol: In a typical run, 70 lbs. of corn starch was suspended in 59 liters of water and the pH adjusted to 5.0 using acetic acid. […] After gelantinization, the starch was flashed into a temperature regulated vessel maintained at 95° C. for continued liquefaction for 2 hours. In another experiment, the liquefaction of starch was carried out at pH 6.3-6.5 (pH adjusted using sodium hydroxide) in the presence of 50 ppm added calcium.
Calcium chloride was added to a level of 25 ppm (as Ca^++) and the pH adjusted to 5.5 using 10% sodium hydroxide.

Sequence of alpha-amylase (Bacillus licheniformis, UniProt P06278) (P06278 30-512): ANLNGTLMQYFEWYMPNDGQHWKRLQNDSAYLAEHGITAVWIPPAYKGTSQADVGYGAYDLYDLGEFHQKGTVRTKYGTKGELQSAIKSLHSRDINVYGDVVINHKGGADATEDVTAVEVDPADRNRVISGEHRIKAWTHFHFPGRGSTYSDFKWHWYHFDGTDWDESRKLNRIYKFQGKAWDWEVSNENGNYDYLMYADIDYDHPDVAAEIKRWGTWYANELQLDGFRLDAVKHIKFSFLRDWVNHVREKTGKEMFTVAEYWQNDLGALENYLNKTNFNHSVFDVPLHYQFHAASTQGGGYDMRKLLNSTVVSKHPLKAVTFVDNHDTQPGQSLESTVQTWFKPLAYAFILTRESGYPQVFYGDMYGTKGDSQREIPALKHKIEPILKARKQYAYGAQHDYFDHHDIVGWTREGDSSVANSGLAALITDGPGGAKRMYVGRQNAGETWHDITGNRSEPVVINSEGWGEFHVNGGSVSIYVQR

Compound: O=C(O)C(c1ccccc1)c1ccccc1 [Diphenylacetic, diphenylacetic acid]
- Half-Life 95° C., pH 5.8 (alpha-amylase [1]): 15 minutes
- (-Δ G°) stabilization free energy, R T ln F (alpha-amylase [1]; pH 5.8): 1.5 K cal/mole
- relative stabilizing effect in words (alpha-amylase [1]; 95° C., pH 5.8, comparison among acids tested): the most
- t 1/2 (alpha-amylase [1]; 95° C., pH 5.8): 15.0 min

Compound: O=C(O)Cc1ccccc1 [Phenylacetic acid, phenylacetic acid]
- Half-Life 95° C., pH 5.8 (alpha-amylase [1]): 7 minutes
- (-Δ G°) stabilization free energy, R T ln F (alpha-amylase [1]; pH 5.8): 1.0 K cal/mole
- t 1/2 (alpha-amylase [1]; 95° C., pH 5.8): 7.0 min

Compound: Cl [chloride]
- order of stabilizing effects of anions against thermal inactivation of the enzyme (alpha-amylase [2]): citrate<sulphate<chloride<acetate

Compound: O=C(O)CC(O)(CC(=O)O)C(=O)O [citrate]
- order of stabilizing effects of anions against thermal inactivation of the enzyme (alpha-amylase [2]): citrate<sulphate<chloride<acetate

Compound: CCCC(=O)[O-].[Na+] [CH3 CH2 CH2 COONa, sodium butyrate]
- (-Δ G°) stabilization free energy, R T ln F (alpha-amylase [1]; pH 5.8): 1.5 K cal/mole
- order of thermal stabilization of the enzyme (alpha-amylase [1]; 95° C., pH 5.8, aliphatic monocarboxylic acid sodium salts, FIG. 1): formate<acetate<propionate<butyrate
- t 1/2 (alpha-amylase [1]; 95° C., pH 5.8): 13.3 min
- additional stabilization attributed to the butyl group (alpha-amylase [1]; relative to formate, 95° C., pH 5.8): about 0.6 K Cal/mol.

Compound: CC(=O)O [Na Acetate, Sodium acetate]
- order of stabilizing effects of anions against thermal inactivation of the enzyme (alpha-amylase [2]): citrate<sulphate<chloride<acetate
- DE Progression ([3]; Starch slurry containing 0.7 mM of sodium acetate + 25 ppm of added Ca^++, 1/2 hr): 4.15
- DE Progression ([3]; Starch slurry containing 0.7 mM of sodium acetate + 25 ppm of added Ca^++, 11/2 hr): 8.87
- DE Progression ([3]; Starch slurry containing 0.7 mM of sodium acetate + 25 ppm of added Ca^++, 1 hr): 6.11
- DE Progression ([3]; Starch slurry containing 0.7 mM of sodium acetate + 25 ppm of added Ca^++, 2 hr): 10.25
- DE Progression ([3]; Starch slurry containing 0.01 M sodium acetate and 25 ppm of added Ca^++, 1/2 hr): 5.53
- DE Progression ([3]; Starch slurry containing 0.01 M sodium acetate and 25 ppm of added Ca^++, 11/2 hr): 10.82
- DE Progression ([3]; Starch slurry containing 0.01 M sodium acetate and 25 ppm of added Ca^++, 1 hr): 8.64
- DE Progression ([3]; Starch slurry containing 0.01 M sodium acetate and 25 ppm of added Ca^++, 2 hr): 13.01

Compound: O=S(=O)(O)O [sulphate]
- order of stabilizing effects of anions against thermal inactivation of the enzyme (alpha-amylase [2]): citrate<sulphate<chloride<acetate
